#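 Growth conditions: 96-well plates. Treatment: test compound, 48 hours, 5 concentrations. Analysis: linear interpolation between bracketing concentrations; unreached endpoints set to highest concentration. Here, GI50 denotes the concentration required for 50% inhibition of growth. TGI: concentration producing complete growth inhibition.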
# How the values were obtained:
# Test in all cases: inhibition of tumour cell growth, NCI panel, 48 h
# [1] = test system: KM12 colon
# [2] = test system: HT29 colon
# [3] = test system: KM20L2 colon
# [4] = test system: DMS 273 small cell lung
# [5] = test system: M14 melanoma
# [6] = test system: UACC-257 melanoma
# [7] = test system: TK-10 renal
# [8] = test system: HS 578T breast
# [9] = test system: DU-145 prostate
# [10] = test system: BT-549 breast
SMILES,TGI [1] [µM],TGI [2] [µM],TGI [3] [µM],TGI [4] [µM],TGI [5] [µM],TGI [6] [µM],TGI [7] [µM],TGI [8] [µM],TGI [9] [µM],TGI [10] [µM],GI50 [1] [µM],GI50 [7] [µM],GI50 [2] [µM],GI50 [3] [µM],GI50 [4] [µM],GI50 [5] [µM],GI50 [6] [µM]
COc1cccc(N2C(=O)/C(=C/c3ccc(N(CCC#N)CCC#N)cc3)N=C2c2cc([N+](=O)[O-])ccc2Cl)c1,> 100,> 100,> 100,> 100,> 100,> 100,–,–,–,–,–,–,–,–,–,–,–
CC12CC/C(=N/NC(N)=O)C3C1CCCC32,> 100,> 100,> 100,> 100,> 100,> 100,> 100,–,–,–,–,–,–,–,–,–,–
Cc1ccc(C(=O)C(c2nc3n(c2O)C(=N)N=N3)c2nc3n(c2O)C(=N)N=N3)cc1 (centres undefined),> 100,> 100,> 100,> 100,> 100,> 100,> 100,–,–,–,–,–,–,–,–,–,–
CCC1(OC(=O)CNC)C(=O)OCc2c1cc1n(c2=O)Cc2cc3ccccc3nc2-1 (centres undefined),1.46,2.64,2.05,< 0.0144,1.27,0.762,30.4,40.8,0.0124,5.11,–,–,–,–,–,–,–
COC(=O)C(=O)C(C#N)c1cccc(Cl)c1 (centres undefined),> 100,> 100,> 100,> 100,> 100,> 100,> 100,–,–,–,–,–,–,–,–,–,–
Cn1nc(-c2ccccc2)c2c(/C=C/c3ccc(Cl)cc3)onc2c1=O,–,> 100,69.5,> 100,> 100,–,> 100,–,–,–,–,–,–,–,–,–,–
CC12CCCC(C#N)(C1)OC2=O (centres undefined),> 100,> 100,> 100,> 100,> 100,> 100,> 100,–,–,–,–,–,–,–,–,–,–
CN(C)CCCOc1ccc(/C=C2/CCC/C(=C/c3ccc(OCCCN(C)C)cc3)C2=O)cc1,2.93,–,0.537,2.96,6.07,3.93,5.33,–,–,–,–,–,–,–,–,–,–
O=C1C(Cl)=C(Cl)C(=O)N1c1ccccc1Cl,> 100,> 100,> 100,> 100,> 100,> 100,> 100,–,–,–,–,–,–,–,–,–,–
N#CC(C(=O)/C(=N/NC(=O)c1ccccc1O)C(C#N)c1ccc(Br)cc1)c1ccc(Br)cc1 (centres undefined),25.5,33.9,29.2,26.8,29,29.5,39.1,–,–,–,–,–,–,–,–,–,–
N#CCCN(C1=NN(C(=O)CC(=O)Nc2ccc(Cl)cc2)C(c2ccccc2)C1)c1ccc(Cl)cc1 (centres undefined),> 100,> 100,> 100,> 100,> 100,> 100,> 100,–,–,–,–,–,–,–,–,–,–
Cc1ccccc1C=NC12CC3CC(CC(C3)C1)C2,> 100,> 100,> 100,> 100,> 100,> 100,> 100,–,–,–,–,–,–,–,–,–,–
CCC[CH2][Sn]1([CH2]CCC)[O]C(=O)CN=C(C)c2ccccc2[O]1,2.58,3.1,2.97,2.74,2.67,2.2,1.78,–,–,–,1.27,0.586,1.66,1.55,1.39,1.37,0.955
O=C(CC(=O)N1N=C(n2ccc3ccccc32)CC1c1ccccc1)Nc1ccc(Cl)cc1 (centres undefined),> 100,> 100,> 100,> 100,> 100,> 100,> 100,–,–,–,–,–,–,–,–,–,–
CCc1cccc(C)c1N1C(=O)C(=O)C(c2nc3ccccc3o2)/C(=N/NC(=S)NN)C1=O (centres undefined),> 100,> 100,> 100,> 100,> 100,> 100,> 100,–,–,–,–,–,–,–,–,–,–
N#CC(C#N)=Cc1ccc(C(O)P(=O)(O)O)cc1 (centres undefined),> 100,> 100,> 100,> 100,> 100,> 100,> 100,–,–,–,–,–,–,–,–,–,–
O=C(O)CCC(=O)Oc1ccc(O)c2c1CCCC2=O,> 100,> 100,> 100,> 100,> 100,> 100,> 100,–,–,–,–,–,–,–,–,–,–
CCOC(=O)NC(=O)c1cn(CCCCCCCCCCC(=O)NCCCN2CCN(CCCNC(=O)CCCCCCCCCCn3cc(C(=O)NC(=O)OCC)c(=O)[nH]c3=O)CC2)c(=O)[nH]c1=O,> 100,> 100,> 100,> 100,> 10,> 100,> 100,–,–,–,–,–,–,–,–,–,–
N#CC(C(=O)CCC(=O)Nc1ccc(Cl)cc1)c1ccc(Cl)cc1 (centres undefined),> 100,> 100,> 100,> 100,> 100,> 100,> 100,–,–,–,–,–,–,–,–,–,–
Cc1ccc2nc(Sc3c([N+](=O)[O-])ncn3C)[nH]c2c1,> 100,> 100,> 100,40.1,92.5,38.5,> 100,–,–,–,–,–,–,–,–,–,–
N.N.N.N.N.N#Cc1nn[n-]n1.[Cl-].[Co+3],> 100,> 100,> 100,> 100,> 100,> 100,> 100,–,–,–,> 100,> 100,> 100,> 100,> 100,> 100,> 100
O=C(Nc1ccccc1)n1cc(-c2ccccn2)c(N2CCOCC2)n1,62.7,19.1,8.69,42.1,> 100,> 100,> 100,–,–,–,–,–,–,–,–,–,–
CN1C(c2ccccc2)CC(C)(O)CC1c1ccccc1 (centres undefined),> 100,> 100,> 100,> 100,> 100,> 100,> 100,–,–,–,–,–,–,–,–,–,–

# Source: PubChem BioAssay (NCI)
